# “Also recorded” adds a separate entry of the source.
# Tests used:
# RS4;11 cell line = experiment: cell growth inhibition, WST-8 assay, RS4; type: cell-based, human
# [1] = molecular target: MDM2 and p53 proteins in RS4;11 cells (Homo sapiens, UniProt Q00987); experiment: western blotting analysis of MDM2 and p53 proteins in RS4; type: cell-based; details: 2 h treatment; for effect on MDM2 and p53 protein levels (western blotting): RS4;11 cells
# Sequence of MDM2 and p53 proteins in RS4;11 cells (Q00987 whole entry): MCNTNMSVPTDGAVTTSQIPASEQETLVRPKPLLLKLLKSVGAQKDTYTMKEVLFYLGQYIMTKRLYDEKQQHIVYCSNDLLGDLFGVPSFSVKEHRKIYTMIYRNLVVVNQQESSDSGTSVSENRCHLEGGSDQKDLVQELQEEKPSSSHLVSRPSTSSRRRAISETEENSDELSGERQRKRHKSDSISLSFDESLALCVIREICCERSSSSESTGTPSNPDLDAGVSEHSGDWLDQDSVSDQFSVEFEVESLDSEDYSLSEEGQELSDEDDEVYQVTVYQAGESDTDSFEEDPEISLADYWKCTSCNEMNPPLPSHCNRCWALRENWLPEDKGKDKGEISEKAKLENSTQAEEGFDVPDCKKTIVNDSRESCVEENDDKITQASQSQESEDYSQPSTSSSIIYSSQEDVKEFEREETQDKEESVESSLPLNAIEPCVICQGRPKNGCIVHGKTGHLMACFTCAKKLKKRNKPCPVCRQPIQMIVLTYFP
Molecule,effect on MDM2 and p53 protein levels (western blotting) [1],also measured
"O=C1CCC(N2C(=O)c3cccc(NCCCCNC(=O)c4ccc(NC(=O)[C@@H]5NC6(CCCCC6)[C@@]6(C(=O)Nc7cc(Cl)ccc76)[C@H]5c5cccc(Cl)c5F)cc4)c3C2=O)C(=O)N1 (some centres unmarked) [Compound 1, (3’R,4’S,5’R)-6”-Chloro-4’-(3-Chloro-2-fluorophenyl)-N-(4-((4-((2-(2,6-dioxopiperidin-3-yl)-1,3-dioxoisoindolin-4-yl)amino)butyl)carbamoyl)phenyl)-2”-oxodispiro[cyclohexane-1,2’-pyrrolidine-3’,3”-indoline]-5’-carboxamide]",effectively reduce the level of MDM2 protein,times more potent than MI-1061 and MI-1242 in inhibition of cell growth (RS4;11 cell line; RS4;11): about 10 times; concentration that reduces/depletes MDM2 protein ([1]; RS4;11 / leukemia cells): 3 nM
"O=C1CCC(N2C(=O)c3cccc(NCCOCCOCCNC(=O)c4ccc(NC(=O)[C@@H]5NC6(CCCCC6)[C@@]6(C(=O)Nc7cc(Cl)ccc76)[C@H]5c5cccc(Cl)c5F)cc4)c3C2=O)C(=O)N1 (some centres unmarked) [Compound 2, (3’R,4’S,5’R)-6”-Chloro-4’-(3-Chloro-2-fluorophenyl)-N-(4-((2-(2-(2-((2-(2,6-dioxopiperidin-3-yl)-1,3-dioxoisoindolin-4-yl)amino)ethoxy)ethoxy)-ethyl)carbamoyl)phenyl)-2”-oxodispiro[cyclohexane-1,2’-pyrrolidine-3’,3”-indoline]-5’-carboxamide]",effectively reduce the level of MDM2 protein; also recorded: effectively induce degradation of MDM2 and accumulation of p53,times more potent than MI-1061 and MI-1242 in inhibition of cell growth (RS4;11 cell line; RS4;11): about 10 times
"O=C1CCC(N2C(=O)c3cccc(NCCNC(=O)c4ccc(NC(=O)[C@@H]5NC6(CCCCC6)[C@@]6(C(=O)Nc7cc(Cl)ccc76)[C@H]5c5cccc(Cl)c5F)cc4)c3C2=O)C(=O)N1 (some centres unmarked) [Compound 4, (3’R,4’S,5’R)-6”-Chloro-4’-(3-Chloro-2-fluorophenyl)-N-(4-((2-((2-(2,6-dioxopiperidin-3-yl)-1,3-dioxoisoindolin-4-yl)amino)ethyl)carbamoyl)phenyl)-2”-oxodispiro[cyclohexane-1,2’-pyrrolidine-3’,3”-indoline]-5’-carboxamide]",induce degradation of MDM2 and accumulation of p53,–
"O=C1CCC(N2C(=O)c3cccc(NCCCNC(=O)c4ccc(NC(=O)[C@@H]5NC6(CCCCC6)[C@@]6(C(=O)Nc7cc(Cl)ccc76)[C@H]5c5cccc(Cl)c5F)cc4)c3C2=O)C(=O)N1 (some centres unmarked) [Compound 5, (3’R,4’S,5’R)-6”-Chloro-4’-(3-Chloro-2-fluorophenyl)-N-(4-((3-((2-(2,6-dioxopiperidin-3-yl)-1,3-dioxoisoindolin-4-yl)amino)propyl)carbamoyl)phenyl)-2”-oxodispiro[cyclohexane-1,2’-pyrrolidine-3’,3”-indoline]-5’-carboxamide]",induce degradation of MDM2 and accumulation of p53,–
"O=C1CCC(N2C(=O)c3cccc(NCCCCCNC(=O)c4ccc(NC(=O)[C@@H]5NC6(CCCCC6)[C@@]6(C(=O)Nc7cc(Cl)ccc76)[C@H]5c5cccc(Cl)c5F)cc4)c3C2=O)C(=O)N1 (some centres unmarked) [Compound 6, (3’R,4’S,5’R)-6”-Chloro-4’-(3-Chloro-2-fluorophenyl)-N-(4-((5-((2-(2,6-dioxopiperidin-3-yl)-1,3-dioxoisoindolin-4-yl)amino)pentyl)carbamoyl)phenyl)-2”-oxodispiro[cyclohexane-1,2’-pyrrolidine-3’,3”-indoline]-5’-carboxamide]",induce degradation of MDM2 and accumulation of p53,–
"O=C1CCC(N2C(=O)c3cccc(NCCCCCCNC(=O)c4ccc(NC(=O)[C@@H]5NC6(CCCCC6)[C@@]6(C(=O)Nc7cc(Cl)ccc76)[C@H]5c5cccc(Cl)c5F)cc4)c3C2=O)C(=O)N1 (some centres unmarked) [Compound 7, (3’R,4’S,5’R)-6”-Chloro-4’-(3-Chloro-2-fluorophenyl)-N-(4-((6-((2-(2,6-dioxopiperidin-3-yl)-1,3-dioxoisoindolin-4-yl)amino)hexyl)carbamoyl)phenyl)-2”-oxodispiro[cyclohexane-1,2’-pyrrolidine-3’,3”-indoline]-5’-carboxamide]",induce degradation of MDM2 and accumulation of p53,–
"O=C1CCC(N2C(=O)c3cccc(NCCCCCCCNC(=O)c4ccc(NC(=O)[C@@H]5NC6(CCCCC6)[C@@]6(C(=O)Nc7cc(Cl)ccc76)[C@H]5c5cccc(Cl)c5F)cc4)c3C2=O)C(=O)N1 (some centres unmarked) [Compound 8, (3’R,4’S,5’R)-6”-Chloro-4’-(3-Chloro-2-fluorophenyl)-N-(4-((7-((2-(2,6-dioxopiperidin-3-yl)-1,3-dioxoisoindolin-4-yl)amino)heptyl)carbamoyl)phenyl)-2”-oxodispiro[cyclohexane-1,2’-pyrrolidine-3’,3”-indoline]-5’-carboxamide]",induce degradation of MDM2 and accumulation of p53,times less potent than 1 in inhibition of cell growth (RS4;11 cell line; RS4;11): 10 times
"O=C1CCC(N2C(=O)c3cccc(NCCOCCNC(=O)c4ccc(NC(=O)[C@@H]5NC6(CCCCC6)[C@@]6(C(=O)Nc7cc(Cl)ccc76)[C@H]5c5cccc(Cl)c5F)cc4)c3C2=O)C(=O)N1 (some centres unmarked) [Compound 9, (3’R,4’S,5’R)-6”-Chloro-4’-(3-Chloro-2-fluorophenyl)-N-(4-((2-(2-((2-(2,6-dioxopiperidin-3-yl)-1,3-dioxoisoindolin-4-yl)amino)ethoxy)ethyl)carbamoyl)phenyl)-2”-oxodispiro[cyclohexane-1,2’-pyrrolidine-3’,3”-indoline]-5’-carboxamide]",effectively induce degradation of MDM2 and accumulation of p53,–
"O=C1CCC(N2C(=O)c3cccc(CCCCCNC(=O)c4ccc(NC(=O)[C@@H]5NC6(CCCCC6)[C@@]6(C(=O)Nc7cc(Cl)ccc76)[C@H]5c5cccc(Cl)c5F)cc4)c3C2=O)C(=O)N1 (some centres unmarked) [Compound 11, (3’R,4’S,5’R)-6”-Chloro-4’-(3-Chloro-2-fluorophenyl)-N-(4-((5-(2-(2,6-dioxopiperidin-3-yl)-1,3-dioxoisoindolin-4-yl)pentyl)carbamoyl)phenyl)-2”-oxodispiro[cyclohexane-1,2’-pyrrolidine-3’,3”-indoline]-5’-carboxamide]",–,times less potent than 1 in inhibition of cell growth (RS4;11 cell line; RS4;11): 3 times
"O=C1CCC(N2Cc3c(C#CCCNC(=O)c4ccc(NC(=O)[C@@H]5NC6(CCCCC6)[C@@]6(C(=O)Nc7cc(Cl)ccc76)[C@H]5c5cccc(Cl)c5F)cc4)cccc3C2=O)C(=O)N1 (some centres unmarked) [Compound 15, (3’R,4’S,5’R)-6”-Chloro-4’-(3-chloro-2-fluorophenyl)-N-(4-((4-(2-(2,6-dioxopiperidin-3-yl)-1-oxoisoindolin-4-yl)but-3-yn-1-yl)carbamoyl)phenyl)-2”-oxodispiro[cyclohexane-1,2’-pyrrolidine-3’,3”-indoline]-5’-carboxamide]",–,times less potent than MD-224 in inhibition of cell growth (RS4;11 cell line; RS4;11): 2 times
CNC(=O)c1ccc(NC(=O)[C@@H]2NC3(CCCCC3)[C@@]3(C(=O)Nc4cc(Cl)ccc43)[C@H]2c2cccc(Cl)c2F)cc1 [MI-1242],inducing accumulation of both MDM2 and p53,–
"(3’R,4’S,5’R)-6”-Chloro-4’-(3-chloro-2-fluorophenyl)-N-(4-((4-((2-(2,6-dioxopiperidin-3-yl)-1-oxoisoindolin-4-yl)amino)butyl)carbamoyl)phenyl)-2”-oxodispiro[cyclohexane-1,2’-pyrrolidine-3’,3”-indoline]-5’-carboxamide [Compound 12]",–,"times more potent than 1 in inhibition of cell growth (RS4;11 cell line; RS4;11): twice as potent as 1; IC50 (RS4;11 cell line; read-out: IC50 (nM) in inhibition of cell growth in the RS4;11 cell line, 4 days, WST-8 assay): 5 ± 5 nM"
